Reference: US12202840B2, “Compounds for the treatment or alleviation of disorders associated with Tau aggregates” (AC Immune SA, priority 2018, dated 2025)

Tests used:
[1] = target: T1, K18 aggregates (Tau K18 fragment, amino acids 244 to 372 of human Tau441) (Homo sapiens, UniProt P10636); test: Tau K18 disaggregation assay by ThT; format: biochemical; conditions: 2 μM K18 aggregates, 160 to 0.04 μM compound, 30 minutes RT, ThT fluorescence; read-out: TauK18 disaggregation EC50
T1 construct: encompassing amino acids 244 to 372 of the longest isoform (2N4R) of human Tau441; host or cells: bacteria
Procedure: Tau K18 Disaggregation Assay by ThT
The Tau K18 fragment, encompassing amino acids 244 to 372 of the longest isoform (2N4R) of human Tau441, was expressed in bacteria and purified or bought from SignalChem. For the K18 disaggregation assay by ThT, 35 μM of recombinant K18 in PBS were aggregated for 24 hours at 37° C. in presence of 50 μM of heparin (Sigma-Aldrich) and 10 mM of DTT (Sigma-Aldrich) under shaking at 750 RPM. Compounds were dissolved in anhydrous dimethyl sulfoxide (DMSO, Sigma-Aldrich) to reach a concentration of 10 mM. K18 aggregates and serial dilutions of compounds were mixed together in PBS (volume 50 μL) to a final concentration of 2 μM of K18 aggregates and from 160 to 0.04 μM of compounds. The mixture was incubated for 30 minutes at room temperature (RT), then 40 μL of this mixture were transferred into a black 384-well plate assay (Perkin-Elmer) and mixed with 10 μL of 100 μM ThT in 250 mM glycine (both from Sigma-Aldrich) in PBS. Fluorescence (relative fluorescence units; RFU) was measured in monoplicate or duplicate on a Tecan reader (excitation: 440 nm; emission: 485 nm). Percentage of K18 disaggregation was then calculated and half maximal effective concentration (EC50) was determined using GraphPad Prism version 5 (GraphPad Software) assuming a one-binding site fitting model.

[2] = test system: human neuroblastoma cell line overexpressing the full-length form of human Tau carrying the P301L mutation; test: Reduction of intracellular Tau aggregation (AlphaLISA); format: cell-based; conditions: compound at 5 μM, 24 h; aggregated Tau normalized to total Tau, relative to DMSO-treated cells
Procedure: Reduction of Intracellular Tau Aggregation
A human neuroblastoma cell line overexpressing the full-length form of human Tau carrying the P301L mutation was cultured in complete medium [DMEM-F12 4.5 g/L Glutamax (Invitrogen), 15% FBS (Biochrom), 1% Peni/Strep (Invitrogen) supplemented with 2.5 μg/ml of G418 (Sigma-Aldrich) selection antibiotic]. The day before the experiment 5×10^5 cells/well were plated in a 6 well plate in 3 mL of complete medium. The next day, cells were incubated with DMSO or a compound of the present invention at a 5 μM for additional 24 h at 37° C. After incubation, cells were trypsinized, resupsended in 100 μl of homogenization buffer [25 mM Tris-HCl pH 7.4, 150 mM NaCl, 1 mM EDTA, 1 mM EGTA containing phosphatase inhibitors (30 mM NaF, 0.2 mM Na3VO4, 1 nM Okadaic acid, 1 mM PMSF, 5 mM Na4P2O7) and protease inhibitor cocktail (Complete™, Roche)], and then physically lysed with three rapid cycles of freezing and thawing. Samples were then directly tested in the AlphaLISA assay.
Phosphorylated, aggregated, and total Tau were quantified by AlphaLisa using the following antibody pairs: • HT7-Acceptor beads+biotin (BT)-Tau13-Donor beads: Total Tau • HT7-Acceptor beads+biotin (BT)-HT7-Donor beads: Aggregated human Tau
The Tau13 (Abcam) was biotinylated using EZ-Link® NHS-PEO Solid Phase biotinylation kit (Thermo Scientific), while the HT7-biotin was from a commercial source (Thermo Scientific).
For each antibody pairs the concentration of acceptor beads and biotinylated antibodies was optimized. All samples were first tested in a dilution series in PBS in order to identify the linear range and optimal dilution for each sample and assay. For the final protocol, the following reagents were added in a 384-well white OptiPlate (Perkin Elmer): • 5 μL of test diluted sample • 20 μL of the mixture biotin-mAb acceptor beads at the following final concentrations: • HT7-BT at 1.25 nM in combination with HT7-Acc beads at 10 μg/ml • Tau13-BT at 5 nM in combination with HT7-Acc beads at 2.5 μg/ml
After incubation of this mixture at room temperature for 1 h, 25 μL of Streptavidin Donor beads (Perkin Elmer) at 25 μg/mL were added in the dark. Plates were analyzed after 30 min incubation using the EnSpire Alpha instrument and EnSpire Workstation version 3.00.
Data for aggregated Tau were normalized to total Tau and then expressed as percentage of the DMSO-treated cells.

[3] = target: T2, flTau aggregates (longest isoform of human Tau, 2N4R; 441 amino acids) (Homo sapiens, UniProt P10636); test: Full-length Tau (flTau) disaggregation assay by Thioflavin T (ThT); format: biochemical; conditions: 2 μM flTau aggregates, 160 to 0.04 μM compound, 30 minutes RT, ThT fluorescence
T2 construct: 35 μM of recombinant full-length (fl)Tau in PBS were aggregated for 24 hours; made in house; host or cells: bacteria
Procedure: Biological Assay Description Full-Length Tau (flTau) Disaggregation Assay by Thioflavin T (ThT)
The longest isoform of human Tau (2N4R; 441 amino acids) was expressed in bacteria and purified. For the Tau disaggregation assay by ThT, 35 μM of recombinant full-length (fl)Tau in PBS were aggregated for 24 hours at 37° C. in presence of 50 μM of heparin (Sigma-Aldrich) and 10 mM of DTT (Sigma-Aldrich) under shaking at 750 RPM. Compounds were dissolved in anhydrous dimethyl sulfoxide (DMSO, Sigma-Aldrich) to reach a concentration of 10 mM.
flTau aggregates and serial dilutions of compounds were mixed together in PBS (volume 50 μL) to a final concentration of 2 μM of flTau aggregates and from 160 to 0.04 μM of compounds. The mixture was incubated for 30 minutes at room temperature (RT), then 40 μL of this mixture were transferred into a black 384-well plate assay (Perkin-Elmer) and mixed with 10 μL of 100 μM ThT in 250 mM glycine (both from Sigma-Aldrich) in PBS. Fluorescence (relative fluorescence units; RFU) was measured in monoplicate or duplicate on a Tecan reader (excitation: 440 nm; emission: 485 nm). Percentage of flTau disaggregation was then calculated and the halfmaximal effective concentration (EC50) was determined using GraphPad Prism version 5 (GraphPad Software) assuming a one-binding site fitting model.

T2 sequence (P10636 1-441 isoform P10636-8): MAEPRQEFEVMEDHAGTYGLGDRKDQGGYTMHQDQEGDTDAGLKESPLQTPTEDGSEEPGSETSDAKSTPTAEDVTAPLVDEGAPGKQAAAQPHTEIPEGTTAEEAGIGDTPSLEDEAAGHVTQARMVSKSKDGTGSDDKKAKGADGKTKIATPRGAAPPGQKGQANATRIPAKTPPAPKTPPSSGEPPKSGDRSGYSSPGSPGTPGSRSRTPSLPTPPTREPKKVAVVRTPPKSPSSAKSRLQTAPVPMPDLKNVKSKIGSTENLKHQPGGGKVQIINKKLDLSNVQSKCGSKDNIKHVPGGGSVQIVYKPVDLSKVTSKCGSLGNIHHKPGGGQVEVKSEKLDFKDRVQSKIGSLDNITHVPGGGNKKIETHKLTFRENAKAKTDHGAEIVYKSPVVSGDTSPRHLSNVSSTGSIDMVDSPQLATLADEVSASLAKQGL
T1 sequence (P10636 561-689): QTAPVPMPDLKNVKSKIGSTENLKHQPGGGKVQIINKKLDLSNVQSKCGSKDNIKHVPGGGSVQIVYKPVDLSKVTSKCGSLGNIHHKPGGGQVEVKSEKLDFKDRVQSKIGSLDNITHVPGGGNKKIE

| EC50 [1] [µM] | EC50 [3] [µM] | SMILES | % Reduction of intracellular Tau aggregation [2] |
| --- | --- | --- | --- |
| 10 to 25 | < 10 | CC(C)N1CCc2c(c3ccc(Nc4ccc5nc(N6CCOCC6)sc5c4)nc3n2C)C1 [Example 1] | + (+ %25 < x < 10) |
| < 10 | < 10 | CN(C)[C@@H]1CCc2c(c3ccc(Nc4ccc5sc(N6CCOCC6)nc5c4)nc3n2C)C1 [Example 2] | + (+ %25 < x < 10) |
| < 10 | < 10 | CN(C)[C@@H]1CCc2c(c3ccc(Nc4ccc5nc(N6CCOCC6)sc5c4)nc3n2C)C1 [Example 12] | ++ (++ %50 < x < 25) |
